The subject of data set [1] is rat CIA model. The data set is described as follows: Rat CIA model: paw swelling, erythema, histology. Format: in vivo. The conditions noted are these: rat CIA, 30, 10, 3 mg/kg b.i.d.; FIG. 6. Here is the method: Anti alpha-4 antibodies, and the compounds of Formulae W and Y were tested in the rat CIA model according to the methods shown in Table 14 below.
(§1) The results in FIG. 6 show the results for compounds. There were 8 rats per group in the efficacy study. Paw swelling and erythema were measured daily and the tarsal paws collected for histological analysis at the end of the study. Plasma which was heparinized was collected at 12 hours (i.e., the trough level) and at 4 horus after the last dose for compound measurement (FIG. 6).

Data set [2] has as its system AIA Rats. The data set is described as follows: Adjuvant-induced arthritis (AIA) in Lewis rats: paw swelling, erythema, histology. Format: in vivo, rat.
A short description of data set [3]: Blood levels of compound in CIA rats (12 hours trough). The note with it: at 12 hours, all concentrations tested. Format: in vivo, rat. On the procedure:
as §1

Data set [4] in a line: Plasma compound levels in AIA rats (4 and 12 hours). It counts as in vivo, rat. The conditions noted are these: 12 hours after dosing, all concentrations tested (30, 10, 3 mg/kg).
Data set [5] deals with murine collagen-induced arthritis (CIA) model. Kind of data set: Murine collagen-induced arthritis (CIA) model: clinical scores. Format: in vivo, mouse. The note with it: therapeutic CIA model, DBA/1LacJ mice, 100 mg/kg b.i.d. On the procedure:
A murine collagen-induced arthritis (CIA) model was used to examine the pharmacological effect of anti-alpha4-integrin antibodies prophylactically, semi-therapeutically and therapeutically. Dosing of the antibody was begun on day 20 for the prophylactic animals. […] The results seen with the treatment of the CIA mice is seen in FIG. 1.
Peripheral blood leucocytes (PBLs) from mice treated with anti-alpha4, anti-α4β7 and anti-VCAM 1 antibodies were collected at 4, 12 and 24 hours after antibody dosing. Cells were stained with goat anti-rat antibodies to confirm antibodies in circulation.
The effect of the compound of Formula P was evaluated in a therapeutica CIA model. […] 100 DBA/1LacJ male mice, ages 6-8 weeks were obtained from Jackson Laboratories. The mice were immunized at Day 0 as follows: 100 μg bovine type II collagen (Chondrex) in Complete Freund's adjuvant (CFA, Sigma) were injected into the mice. At Day 21, another 100 μg bovine type II collagen (Chondrex) in Incomplete Freund's Adjuvant (IFA, Sigma) was injected into the mice. Treatment with the compound began when the animals had the disease (i.e., 100% therapeutic).
The mice are scored daily after the boost. […] Treatment continued for 3 weeks of dosing. Dosing was every other day for the antibody group and control group. […]

With `CC(C)OC(=O)[C@H](Cc1ccc(OC(=O)N2CCN(C)CC2)cc1)NC(=O)[C@H]1N(S(=O)(=O)c2cccnc2)CSC1(C)C` [Formula N, N-[N-(3-pyridinesulfonyl)-L-3,3-dimethyl-4-thiaprolyl]-O-[1-methylpiperazin-4-ylcarbonyl]-L-tyrosine isopropyl ester], the disease severity result in data set [1] is given as “neither the compound of Formula N nor Y had any impact on disease severity”; in data set [2] (Example F, 3 mg/kg s.c. b.i.d.), “no effect on disease severity”. Also, the “clinical and histological scores” value in data set [2] (AIA model, 30 mg/kg b.i.d.) was “ameliorate clinical and histological scores”.

As to `CCN(CC)c1ncc(N(CC)S(=O)(=O)c2ccc(Cl)cc2)c(NC(Cc2ccc(OC(=O)N3CCCC3)cc2)C(=O)O)n1` (stereo not shown) [Formula P], the “blood levels of the compound relative to receptor saturation” value in data set [3] was “above receptor saturation”. For the same compound, the disease entry in data set [2] (Example F, all concentrations tested (30, 10, 3 mg/kg p.o. b.i.d.), FIG. 5) is “ameliorate disease”. The “levels of the compound relative to receptor saturation” value in data set [4] is “above receptor saturation”. For the same compound, the disease progression entry in data set [5] is on record as “no effect on disease progression”.

Source of the values: US7605166B2, “Methods and compositions for treating rheumatoid arthritis” (Elan Pharmaceuticals Inc., priority 2003, dated 2009).
